Assay results: patent publication US20250215029A1 (Recludix Pharma, Inc., priority 2022, published 2025)

target: T1, pY705-STAT3 in PBMC (Homo sapiens, UniProt P40763); experiment: MSD-pSTAT-PBMC Assay (pSTAT3, IL-6 stimulated); format: cell-based; conditions: PBMC, compound 3 hrs, then 10 ng/mL IL-6 for 10 min; Table 115; read-out: STAT3
T1 construct: Cryopreserved Peripheral Blood Mononuclear Cells (PBMC) are from AllCells; host or cells: cryopreserved PBMC
Procedure, shortened: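 Thawed human PBMC rested overnight in IMDM/10% FBS, then got compound for 3 hrs before a 10 min cytokine pulse: 1 ng/mL IL-4 for pSTAT6, 10 ng/mL IL-6 for pSTAT3. Lysates went to MSD sandwich capture on total STAT6 or STAT3 with phospho-specific detection. IC50 came from background-subtracted, DMSO-normalized signal.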

T1 sequence (P40763 whole entry): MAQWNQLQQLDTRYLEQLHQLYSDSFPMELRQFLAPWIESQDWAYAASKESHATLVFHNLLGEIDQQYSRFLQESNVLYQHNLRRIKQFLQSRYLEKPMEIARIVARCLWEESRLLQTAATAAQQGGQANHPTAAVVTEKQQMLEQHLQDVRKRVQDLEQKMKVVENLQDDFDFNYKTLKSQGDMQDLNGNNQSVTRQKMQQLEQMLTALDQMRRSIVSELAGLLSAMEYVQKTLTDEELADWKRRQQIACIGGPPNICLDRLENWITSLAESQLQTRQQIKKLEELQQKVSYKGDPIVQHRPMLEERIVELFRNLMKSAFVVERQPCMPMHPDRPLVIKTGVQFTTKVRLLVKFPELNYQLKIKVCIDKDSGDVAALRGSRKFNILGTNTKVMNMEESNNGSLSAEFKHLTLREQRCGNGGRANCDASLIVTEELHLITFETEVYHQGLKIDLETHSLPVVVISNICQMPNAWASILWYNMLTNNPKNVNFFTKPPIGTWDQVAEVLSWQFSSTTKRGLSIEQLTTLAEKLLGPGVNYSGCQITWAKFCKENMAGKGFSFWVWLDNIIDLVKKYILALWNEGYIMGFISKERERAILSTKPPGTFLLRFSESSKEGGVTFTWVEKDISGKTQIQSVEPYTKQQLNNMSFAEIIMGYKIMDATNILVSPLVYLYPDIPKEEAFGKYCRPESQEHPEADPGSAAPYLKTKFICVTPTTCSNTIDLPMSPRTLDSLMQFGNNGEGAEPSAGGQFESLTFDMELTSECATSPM

Row | SMILES | IC50
1 | CCCOC(=O)[C@H](C)NP(=O)(Cc1ccc2sc(C(=O)N[C@H]3CCC[C@H]4CC[C@@H](C(=O)N5CC(c6cnc(F)cc6OC)C5)N4C3=O)cc2c1)Oc1ccccc1 (stereo partly drawn) [Compound 278, propyl (((2-(((3S,6S,9aS)-3-(3-(6-fluoro-4-methoxypyridin-3-yl)azetidine-1-carbonyl)-5-oxooctahydro-1H-pyrrolo[1,2-a]azepin-6-yl)carbamoyl)benzo [b]thiophen-5-yl)methyl)(phenoxy)phosphoryl)-L-alaninate] | 100 to 1000 nM
2 | CCCOC(=O)[C@H](CCOC)NP(=O)(Cc1ccc2sc(C(=O)N[C@H]3CCC[C@H]4CC[C@@H](C(=O)N5CC(c6cccnc6)C5)N4C3=O)cc2c1)Oc1ccccc1 (stereo partly drawn) [Compound 431, propyl O-methyl-N-(((2-(((3S,6S,9aS)-5-oxo-3-(3-(pyridin-3-yl)azetidine-1-carbonyl)octahydro-1H-pyrrolo[1,2-a]azepin-6-yl)carbamoyl)benzo [b]thiophen-5-yl)methyl)(phenoxy)phosphoryl)-L-homoserinate] | 100 to 1000 nM
3 | O=C(Cc1ccccc1)SCCOP(=O)(OCCSC(=O)Cc1ccccc1)C(F)(F)c1ccc2sc(C(=O)N[C@H]3CCC[C@H]4CC[C@@H](C(=O)N5CC(c6cccnc6)C5)N4C3=O)cc2c1 [Compound 1006, S,S′-((((difluoro(2-(((3S,6S,9aS)-5-oxo-3-(3-(pyridin-3-yl)azetidine-1-carbonyl)octahydro-1H-pyrrolo[1,2-a]azepin-6-yl)carbamoyl)benzo [b]thiophen-5-yl)methyl)phosphoryl)bis(oxy))bis(ethane-2,1-diyl)) bis(2-phenylethanethioate)] | < 100 nM
4 | C[C@H](NP(=O)(Cc1ccc2sc(C(=O)N[C@H]3CCC[C@H]4CC[C@@H](C(=O)N5CC(c6cccnc6)C5)N4C3=O)cc2c1)Oc1ccccc1)C(=O)OCc1ccccc1 (stereo partly drawn) [Compound 394, benzyl (((2-(((3S,6S,9aS)-5-oxo-3-(3-(pyridin-3-yl)azetidine-1-carbonyl)octahydro-1H-pyrrolo[1,2-a]azepin-6-yl)carbamoyl)benzo [b]thiophen-5-yl)methyl)(phenoxy)phosphoryl)-L-alaninate] | < 100 nM
5 | CCCOC(=O)[C@H](C)NP(=O)(Oc1ccccc1)C(F)c1ccc2sc(C(=O)N[C@H]3CCC[C@H]4CC[C@@H](C(=O)N5CC(c6cnccc6C#N)C5)N4C3=O)cc2c1 (stereo partly drawn) [Compound 273, propyl (((2-(((3S,6S,9aS)-3-(3-(4-cyanopyridin-3-yl)azetidine-1-carbonyl)-5-oxooctahydro-1H-pyrrolo[1,2-a]azepin-6-yl)carbamoyl)benzo [b]thiophen-5-yl)fluoromethyl) (phenoxy)phosphoryl)-L-alaninate] | 100 to 1000 nM
6 | CCCOC(=O)[C@H](C)N[P@](=O)(Oc1ccccc1)[C@H](F)c1ccc2sc(C(=O)N[C@H]3CCC[C@H]4CC[C@@H](C(=O)N5CC(c6cnccc6OC)C5)N4C3=O)cc2c1 (single isomer, unassigned) [Compound 999] | < 100 nM
7 | CC(C)CC(=O)SCCOP(=O)(OCOC(=O)O[C@@H]1CCOC1)C(F)(F)c1ccc2sc(C(=O)N[C@H]3CCC[C@H]4CC[C@@H](C(=O)N5CC(c6ncccn6)C5)N4C3=O)cc2c1 (stereo partly drawn) [Compound 1098, S-(2-(((difluoro(2-(((3S,6S,9aS)-5-oxo-3-(3-(pyrimidin-2-yl)azetidine-1-carbonyl)octahydro-1H-pyrrolo[1,2-a]azepin-6-yl)carbamoyl)benzo [b]thiophen-5-yl)methyl)((((((R)-tetrahydrofuran-3-yl)oxy)carbonyl)oxy)methoxy)phosphoryl)oxy)ethyl) 3-methylbutanethioate] | < 100 nM
8 | CCCOC(=O)[C@H](CC)NP(=O)(Cc1ccc2sc(C(=O)N[C@H]3CCC[C@H]4CC[C@@H](C(=O)N5CC(c6cccnc6)C5)N4C3=O)cc2c1)Oc1ccccc1 (stereo partly drawn) [Compound 296, propyl (2S)-2-((((2-(((3S,6S,9aS)-5-oxo-3-(3-(pyridin-3-yl)azetidine-1-carbonyl)octahydro-1H-pyrrolo[1,2-a]azepin-6-yl)carbamoyl)benzo [b]thiophen-5-yl)methyl)(phenoxy)phosphoryl)amino) butanoate] | < 100 nM
9 | C[C@H](NP(=O)(Cc1ccc2sc(C(=O)N[C@H]3CCC[C@H]4CC[C@@H](C(=O)N5CC(c6cccnc6)C5)N4C3=O)cc2c1)Oc1ccccc1)C(=O)OCCC(F)(F)F (stereo partly drawn) [Compound 291, 3,3,3-trifluoropropyl (((2-(((3S,6S,9aS)-5-oxo-3-(3-(pyridin-3-yl)azetidine-1-carbonyl)octahydro-1H-pyrrolo[1,2-a]azepin-6-yl)carbamoyl)benzo [b]thiophen-5-yl)methyl)(phenoxy)phosphoryl)-L-alaninate] | < 100 nM
10 | CCOC(=O)[C@H](C)NP(=O)(Cc1ccc2sc(C(=O)N[C@H]3CCC[C@H]4CC[C@@H](C(=O)N5CC(c6cccnc6)C5)N4C3=O)cc2c1)Oc1ccccc1 (stereo partly drawn) [Compound 422, ethyl (((2-(((3S,6S,9aS)-5-oxo-3-(3-(pyridin-3-yl)azetidine-1-carbonyl)octahydro-1H-pyrrolo[1,2-a]azepin-6-yl)carbamoyl)benzo [b]thiophen-5-yl)methyl)(phenoxy)phosphoryl)-L-alaninate] | < 100 nM
11 | CCCOC(=O)[C@H](C)NP(=O)(Cc1ccc2sc(C(=O)N[C@H]3CCC[C@H]4CC[C@@H](C(=O)N5CC(c6cccnc6)C5)N4C3=O)cc2c1)Oc1c(C)cccc1C (stereo partly drawn) [Compound 293, propyl ((2,6-dimethylphenoxy) ((2-(((3S,6S,9aS)-5-oxo-3-(3-(pyridin-3-yl)azetidine-1-carbonyl)octahydro-1H-pyrrolo[1,2-a]azepin-6-yl)carbamoyl)benzo [b]thiophen-5-yl)methyl)phosphoryl)-L-alaninate] | < 100 nM
12 | CCCOC(=O)[C@H](C)NP(=O)(Oc1ccccc1)[C@H](F)c1ccc2sc(C(=O)N[C@H]3C[C@@H](C)C[C@H]4CC[C@@H](C(=O)N5CC(c6cncnc6N6CCC6)C5)N4C3=O)cc2c1 (some centres unmarked) [Compound 1078] | < 100 nM
13 | CCCOC(=O)[C@H](C)NP(=O)(Oc1ccccc1)C(F)c1ccc2sc(C(=O)N[C@H]3CCC[C@H]4CC[C@@H](C(=O)N5CC(c6cn(C)ccc6=O)C5)N4C3=O)cc2c1 (stereo partly drawn) [Compound 985, propyl ((fluoro(2-(((3S,6S,9aS)-3-(3-(1-methyl-4-oxo-1,4-dihydropyridin-3-yl)azetidine-1-carbonyl)-5-oxooctahydro-1H-pyrrolo[1,2-a]azepin-6-yl)carbamoyl)benzo [b]thiophen-5-yl)methyl)(phenoxy)phosphoryl)-L-alaninate] | > 3000 nM
14 | CCC(CC)COC(=O)[C@H](C)NP(=O)(Cc1ccc2sc(C(=O)N[C@H]3CCC[C@H]4CC[C@@H](C(=O)N5CC(c6cccnc6)C5)N4C3=O)cc2c1)Oc1ccccc1 (stereo partly drawn) [Compound 258, 2-ethylbutyl (((2-(((3S,6S,9aS)-5-oxo-3-(3-(pyridin-3-yl)azetidine-1-carbonyl)octahydro-1H-pyrrolo[1,2-a]azepin-6-yl)carbamoyl)benzo [b]thiophen-5-yl)methyl)(phenoxy)phosphoryl)-L-alaninate] | < 100 nM
15 | CCCOC(=O)[C@H](C)NP(=O)(Oc1ccccc1)[C@H](F)c1ccc2sc(C(=O)N[C@H]3CCC[C@H]4CC[C@@H](C(=O)N5CC(c6cnccc6N6CC(OC)C6)C5)N4C3=O)cc2c1 (stereo partly drawn) [Compound 1063, propyl (((S)-fluoro(2-(((3S,6S,9aS)-3-(3-(4-(3-methoxyazetidin-1-yl)pyridin-3-yl)azetidine-1-carbonyl)-5-oxooctahydro-1H-pyrrolo[1,2-a]azepin-6-yl)carbamoyl)benzo [b]thiophen-5-yl)methyl)(phenoxy)phosphoryl)-L-alaninate] | < 100 nM
16 | CCCOC(=O)[C@H](C)NP(=O)(Oc1ccccc1)[C@H](F)c1ccc2sc(C(=O)N[C@H]3CCC[C@H]4CC[C@@H](C(=O)N5CC(c6cncnc6N6CCOCC6)C5)N4C3=O)cc2c1 (stereo partly drawn) [Compound 1067, propyl (((S)-fluoro(2-(((3S,6S,9aS)-3-(3-(4-morpholinopyrimidin-5-yl)azetidine-1-carbonyl)-5-oxooctahydro-1H-pyrrolo[1,2-a]azepin-6-yl)carbamoyl)benzo [b]thiophen-5-yl)methyl)(phenoxy)phosphoryl)-L-alaninate] | 100 to 1000 nM
17 | CC(C)COC(=O)[C@H](C)NP(=O)(Oc1ccccc1)C(F)c1ccc2sc(C(=O)N[C@H]3CCC[C@H]4CC[C@@H](C(=O)N5CC(c6cnccc6F)C5)N4C3=O)cc2c1 (stereo partly drawn) [Compound 277, isobutyl ((fluoro(2-(((3S,6S,9aS)-3-(3-(4-fluoropyridin-3-yl)azetidine-1-carbonyl)-5-oxooctahydro-1H-pyrrolo[1,2-a]azepin-6-yl)carbamoyl)benzo [b]thiophen-5-yl)methyl)(phenoxy)phosphoryl)-L-alaninate] | < 100 nM
18 | CCCOC(=O)[C@H](C)NP(=O)(Oc1ccccc1)[C@@H](F)c1ccc2sc(C(=O)N[C@H]3CCC[C@H]4CC[C@@H](C(=O)N5CC(c6cnccc6N6CCC6)C5)N4C3=O)cc2c1 (stereo partly drawn) [Compound 1028, propyl (((R)-(2-(((3S,6S,9aS)-3-(3-(4-(azetidin-1-yl)pyridin-3-yl)azetidine-1-carbonyl)-5-oxooctahydro-1H-pyrrolo[1,2-a]azepin-6-yl)carbamoyl)benzo [b]thiophen-5-yl)fluoromethyl) (phenoxy)phosphoryl)-L-alaninate] | 100 to 1000 nM
19 | CCCOC(=O)[C@H](C)N[P@@](=O)(Oc1ccccc1)[C@@H](F)c1ccc2sc(C(=O)N[C@H]3CCC[C@H]4CC[C@@H](C(=O)N5CC(c6cnccc6OC)C5)N4C3=O)cc2c1 (single isomer, unassigned) [Compound 1032] | < 100 nM
20 | CCCOC(=O)[C@H](C)NP(=O)(Cc1ccc2sc(C(=O)N[C@H]3CCCC[C@H]4CC[C@@H](C(=O)N5CC(c6cnccc6F)C5)N4C3=O)cc2c1)Oc1ccccc1 (stereo partly drawn) [Compound 274, propyl (((2-(((3S,6S,10aS)-3-(3-(4-fluoropyridin-3-yl)azetidine-1-carbonyl)-5-oxodecahydropyrrolo [1,2-a]azocin-6-yl)carbamoyl)benzo [b]thiophen-5-yl)methyl)(phenoxy)phosphoryl)-L-alaninate] | < 100 nM
